# Assay: Phase I toxicity assessment
# [1] = number of patients, tanespimycin 300 mg/m^2 (n = 3) + sorafenib
# [2] = number of patients, tanespimycin 350 mg/m^2 (n = 7) + sorafenib
# [3] = number of patients, tanespimycin 400 mg/m^2 (n = 11) + sorafenib
# [4] = number of patients, tanespimycin 450 mg/m^2 (n = 6) + sorafenib
smiles,measurement,setting,value
"C=CCNC1=C2C[C@@H](C)C[C@H](OC)[C@H](O)[C@@H](C)/C=C(\C)[C@H](OC(N)=O)[C@@H](OC)/C=C\C=C(/C)C(=O)NC(=CC1=O)C2=O [tanespimycin, 17-demethoxy-allylaminogeldanamycin]",patients with treatment interruptions,"human, in vivo",2 patients
same,recommended phase II dose,"in combination with sorafenib, intravenous, days 1, 8 and 15 every 28 days",400 mg/m^2
same,Diarrhea Grade1,[1],1
same,Diarrhea Grade2,[1],1
same,Diarrhea Grade3,[1],0
same,Diarrhea Grade4,[1],0
same,Fatigue Grade1,[1],3
same,Fatigue Grade2,[1],0
same,Fatigue Grade3,[1],0
same,Fatigue Grade4,[1],0
same,Hand-Foot syndrome Grade1,[1],1
same,Hand-Foot syndrome Grade2,[1],0
same,Hand-Foot syndrome Grade3,[1],0
same,Hand-Foot syndrome Grade4,[1],0
same,Headache Grade1,[1],1
same,Headache Grade2,[1],0
same,Headache Grade3,[1],0
same,Headache Grade4,[1],0
same,Liver function abnormality Grade1,[1],0
same,Liver function abnormality Grade2,[1],1
same,Liver function abnormality Grade3,[1],0
same,Liver function abnormality Grade4,[1],0
same,Nausea Grade1,[1],1
same,Nausea Grade2,[1],0
same,Nausea Grade3,[1],0
same,Nausea Grade4,[1],0
same,Other toxicity Grade1,[1],0
same,Other toxicity Grade2,[1],3
same,Other toxicity Grade3,[1],0
same,Other toxicity Grade4,[1],0
same,Bleeding Grade1,[2],1
same,Bleeding Grade2,[2],1
same,Bleeding Grade3,[2],0
same,Bleeding Grade4,[2],0
same,Creatinine Grade1,[2],1
same,Creatinine Grade2,[2],1
same,Creatinine Grade3,[2],0
same,Creatinine Grade4,[2],0
same,Diarrhea Grade1,[2],3
same,Diarrhea Grade2,[2],1
same,Diarrhea Grade3,[2],1
same,Diarrhea Grade4,[2],0
same,Emesis Grade1,[2],2
same,Emesis Grade2,[2],3
same,Emesis Grade3,[2],1
same,Emesis Grade4,[2],0
same,Fatigue Grade1,[2],2
same,Fatigue Grade2,[2],0
same,Fatigue Grade3,[2],0
same,Fatigue Grade4,[2],0
same,Hand-Foot syndrome Grade1,[2],0
same,Hand-Foot syndrome Grade2,[2],2
same,Hand-Foot syndrome Grade3,[2],0
same,Hand-Foot syndrome Grade4,[2],0
same,Headache Grade1,[2],1
same,Headache Grade2,[2],1
same,Headache Grade3,[2],0
same,Headache Grade4,[2],0
same,Hemoglobin Grade1,[2],1
same,Hemoglobin Grade2,[2],0
same,Hemoglobin Grade3,[2],0
same,Hemoglobin Grade4,[2],0
same,Liver function abnormality Grade1,[2],2
same,Liver function abnormality Grade2,[2],0
same,Liver function abnormality Grade3,[2],0
same,Liver function abnormality Grade4,[2],0
same,Myalgias Grade1,[2],1
same,Myalgias Grade2,[2],0
same,Myalgias Grade3,[2],0
same,Myalgias Grade4,[2],0
same,Nausea Grade1,[2],3
same,Nausea Grade2,[2],2
same,Nausea Grade3,[2],0
same,Nausea Grade4,[2],0
same,Other toxicity Grade1,[2],5
same,Other toxicity Grade2,[2],1
same,Other toxicity Grade3,[2],1
same,Other toxicity Grade4,[2],0
same,Platelets Grade1,[2],1
same,Platelets Grade2,[2],0
same,Platelets Grade3,[2],0
same,Platelets Grade4,[2],0
same,Creatinine Grade1,[3],0
same,Creatinine Grade2,[3],1
same,Creatinine Grade3,[3],0
same,Creatinine Grade4,[3],0
same,Diarrhea Grade1,[3],1
same,Diarrhea Grade2,[3],1
same,Diarrhea Grade3,[3],0
same,Diarrhea Grade4,[3],0
same,Dyspnea Grade1,[3],0
same,Dyspnea Grade2,[3],0
same,Dyspnea Grade3,[3],1
same,Dyspnea Grade4,[3],1
same,Emesis Grade2,[3],0
same,Emesis Grade3,[3],0
same,Emesis Grade4,[3],0
same,Fatigue Grade2,[3],2
same,Fatigue Grade3,[3],1
same,Fatigue Grade4,[3],0
same,Hand-Foot syndrome Grade1,[3],0
same,Hand-Foot syndrome Grade2,[3],3
same,Hand-Foot syndrome Grade3,[3],2
same,Hand-Foot syndrome Grade4,[3],0
same,Headache Grade1,[3],1
same,Headache Grade2,[3],0
same,Headache Grade3,[3],0
same,Headache Grade4,[3],0
same,Hemoglobin Grade1,[3],2
same,Hemoglobin Grade2,[3],1
same,Hemoglobin Grade3,[3],0
same,Hemoglobin Grade4,[3],0
same,Infection Grade1,[3],0
same,Infection Grade2,[3],1
same,Infection Grade3,[3],0
same,Infection Grade4,[3],0
same,Liver function abnormality Grade1,[3],1
same,Liver function abnormality Grade2,[3],0
same,Liver function abnormality Grade3,[3],0
same,Liver function abnormality Grade4,[3],0
same,Myalgias Grade1,[3],1
same,Myalgias Grade2,[3],0
same,Myalgias Grade3,[3],0
same,Myalgias Grade4,[3],0
same,Nausea Grade1,[3],6
same,Nausea Grade2,[3],1
same,Nausea Grade3,[3],1
same,Nausea Grade4,[3],0
same,Neutropenia Grade1,[3],0
same,Neutropenia Grade2,[3],0
same,Neutropenia Grade3,[3],1
same,Neutropenia Grade4,[3],0
same,Other toxicity Grade1,[3],3
same,Other toxicity Grade2,[3],3
same,Other toxicity Grade3,[3],2
same,Other toxicity Grade4,[3],0
same,Platelets Grade1,[3],2
same,Platelets Grade2,[3],0
same,Platelets Grade3,[3],0
same,Platelets Grade4,[3],0
same,Abdominal pain Grade1,[4],2
same,Abdominal pain Grade2,[4],0
same,Abdominal pain Grade3,[4],1
same,Abdominal pain Grade4,[4],0
same,Diarrhea Grade1,[4],2
same,Diarrhea Grade2,[4],0
same,Diarrhea Grade3,[4],1
same,Diarrhea Grade4,[4],0
same,Emesis Grade1,[4],1
same,Emesis Grade2,[4],0
same,Emesis Grade3,[4],0
same,Emesis Grade4,[4],0
same,Fatigue Grade1,[4],4
same,Fatigue Grade2,[4],1
same,Fatigue Grade3,[4],0
same,Fatigue Grade4,[4],0
same,Hand-Foot syndrome Grade1,[4],1
same,Hand-Foot syndrome Grade2,[4],1
same,Hand-Foot syndrome Grade3,[4],2
same,Hand-Foot syndrome Grade4,[4],0
same,Headache Grade1,[4],2
same,Headache Grade2,[4],0
same,Headache Grade3,[4],0
same,Headache Grade4,[4],0
same,Hemoglobin Grade1,[4],1
same,Hemoglobin Grade2,[4],0
same,Hemoglobin Grade3,[4],0
same,Hemoglobin Grade4,[4],0
same,Hypertension Grade1,[4],0
same,Hypertension Grade2,[4],1
same,Hypertension Grade3,[4],0
same,Hypertension Grade4,[4],0
same,Infection Grade1,[4],0
same,Infection Grade2,[4],0
same,Infection Grade3,[4],1
same,Infection Grade4,[4],0
same,Liver function abnormality Grade1,[4],0
same,Liver function abnormality Grade2,[4],0
same,Liver function abnormality Grade3,[4],0
same,Liver function abnormality Grade4,[4],1
same,Myalgias Grade1,[4],1
same,Myalgias Grade2,[4],0
same,Myalgias Grade3,[4],0
same,Myalgias Grade4,[4],0
same,Nausea Grade1,[4],4
same,Nausea Grade2,[4],0
same,Nausea Grade3,[4],0
same,Nausea Grade4,[4],0
same,Other toxicity Grade1,[4],3
same,Other toxicity Grade2,[4],0
same,Other toxicity Grade3,[4],1
same,Other toxicity Grade4,[4],0
same,Platelets Grade1,[4],0
same,Platelets Grade2,[4],0
same,Platelets Grade3,[4],1
same,Platelets Grade4,[4],0
same,patients requiring dose modifications,"sorafenib to 400 mg once daily, tanespimycin to one dose level lower",4 patients
